US7442394B2, “Combined effects of nutrients on proliferation of stem cells” (University of South Florida, priority 2005, dated 2008)

Experiments:
human bone marrow cells = assay: MTT cell proliferation assay on human bone marrow cells; assay type: cell-based; settings: for proliferative activity on human bone marrow cells in culture (screen): screened individually; for increase in proliferation, percent over control: 20 μM
[1] = test system: Human bone marrow-derived CD34+ cells; assay: MTT cell proliferation assay on CD34+ cells; assay type: cell-based; settings: highest doses (BB 500 ng/mL, D3 5 μM, CH 20 μM, Ca 20 μM, GT 500 ng/mL), 72 hours
Protocol: Human CD133+ cells were cultured for 23 days in the presence or absence of green tea (50 μg/ml).
(§1) Cell cultures and MTT Assay. For cell proliferation analysis, human bone marrow cells, human CD34+cells or CD133 cells (BioWhittaker, Inc.) were cultured in 96 well plates (5×10^4/well) containing 100 μL of complete medium (RPMI 1640 medium supplemented with 5% fetal calf serum). These cells were treated for 72 hours with various extracts at a wide range of doses (8 ng/mL to 500 ng/mL) or molecular compounds (0.3125 μM to 20 μM). Five hours before the end of the treatment, 20 μL of MTT solution (MTT kit, Sigma) was added to each well. These plates were then incubated in a CO2 incubator at 37° C. for 5 hours and the cultured media removed with needle and syringe. 200 μL of DMSO was added to each well with pipetting up and down to dissolve crystals. These plates were put back into the 37° C. incubator for 5 minutes, transferred to plate reader and measured absorbance at 550 nm. Data were represented as relative percentage mean proliferation, defined as O.D. reading number of each treated cells normalized to control cells (in the absence of treatment).

[2] = test system: CD133+ (progenitor cells) collected from peripheral blood; assay: MTT cell proliferation assay on CD133+ cells; assay type: cell-based, human; settings: same conditions as CD34+ cells
Protocol: as §1
Promotion of CD133+ Cell Proliferation and Synergistic Properties of Extracts and Compounds. Some of the compounds and combinations with the greatest activity on proliferation of the bone marrow derived CD34+ cells were then used to treat CD133+ (progenitor cells) collected from peripheral blood and cultured under the same conditions as above.

[3] = Vitamin D3 blood concentration in humans; assay type: in vivo; settings: dose of 50 mcg
Protocol: In one example, Vitamin D3 is used as 2000 IU's, which is equivalent to 50 μg. In humans, daily administration of 4000 IUs (100 mcg) results in a blood concentration of 100 nmol/L. There is no official RDA for vitamin D3 [R. Vieth, D. Fraser, Vitamin D insufficiency: no recommended dietary allowance exists for this nutrient, CMAJ 166 (2002) 1541-1542](4). According to a conservative report of the Food and Nutrition Board [R. Vieth (2004) Why the optimal requirement for Vitamin D3 is probably much higher than what is officially recommended for adults. Journal of Steroid Biochemistry & Molecular Biology 89-90 (2004) 575-579], the safety limit (no adverse effect level, NOAEL) of vitamin D3 intake in humans is 60 mcg (or 2400 IU) per day [Standing Committee on the Scientific Evaluation of Dietary Reference Intakes. Dietary Reference Intakes: Calcium, Phosphorus, Magnesium, Vitamin D, and Fluoride. National Academy Press, 1997]. After applying a margin of safety, the recommended upper limit is 50 mcg (2000 IUs) per day for intake by the general public [I. Munro, Derivation of tolerable upper intake levels of nutrients, Am. J. Clin. Nutr. 74 (2001) 865-867]. Clinical trials show no benefit from oral doses 20 mcg (800 IUs) or less [R. Vieth (2004) Why the optimal requirement for Vitamin D3 is probably much higher than what is officially recommended for adults. […]

[4] = daily administration of 4000 IUs (100 mcg); cited from earlier work
[5] = cited from earlier work
[6] = Human pK study of carnosine after beef consumption (Park et al. 2005); assay type: in vivo, humans
Protocol: In one example, carnosine is added to a supplement in a dose of 100 mg. A recent pK study in humans [Park Y J, Volpe S L, Decker, E A (2005) Quantitation of Carnosine in Humans Plasma after Dietary Consumption of Beef. J. Agric. […] With a Mw of 266 and assuming 5 liters of blood in a human, 250 mg carnosine produces a blood conc of […]. Assuming linear pK, 100 mg should produce a human blood concentration of […]. Doses tested ranged from 1-20 μM, effect was still increasing at 20 μM. Thus, a dose as high as 620 may be helpful and still be within normal ranges for human consumption. A preferred effective range is about 10 mg to 100 mg of carnosine based on extrapolation from results obtained.

[7] = cited from earlier work; remark: listed apart in the source
[8] = test system: CD117/SCA-1 positive cells (hematopoietic stem cells); assay: Flow cytometry of CD117/SCA-1 positive cells after 6 days of treatment; assay type: in vivo, mice; settings: day 7
Protocol: (§2) On day 7 cells were isolated and prepared for flow cytometry. The percentage of CD117/SCA-1 positive cells was analyzed. This represents a hematopoietic stem cells. […] On day 7 cells were isolated and plated in the colony forming assay (see specific methods) for 5 days. ATP was detected by luciferase assay and luminescence was converted to ATP units with use of a standard curve. […] Although a statistically small sample, the effects show a cytokine like effect to reduce progenitors in the bone marrow.
(§3) In vivo studies. […] To date we have treated 3 mice with (Blueberry Extract: 3 mg/kg/day; Carnosine: 10 mg/kg/day; Vitamin D3:1 mg/kg/day; green tea extract: 3 mg/kg/day) or water by gavage, in addition 3 mice have been treated with G-CSF […] i.p. Initial studies were done at 6 days of treatment as this is an optimal time for G-CSF to show mobilization of progenitors into the peripheral blood. Bone marrow, spleen and peripheral blood mononuclear cells were examined by flow cytometry with SCA-1 and CD117, the presence of both markers is indicative of multipotent hematopoietic stem cells. […] The three fractions were also assessed in the HALO™ colony forming assay. […] This effect is consistent with the literature and thus increases our confidence in this version of the CFU-C assay.

[9] = test system: colony forming units (CFU-C's); assay: HALO colony forming assay of bone marrow, spleen and mononuclear cells; assay type: in vivo, mice; settings: 6 days of treatment
Protocol: as §2, §3

## C=C1CC[C@H](O)C/C1=C/C=C1\CCC[C@]2(C)[C@@H]([C@H](C)CCCC(C)(C)O)CC[C@@H]12 [25-Hydroxycholecalciferol]
Human bone marrow cells; 5 μM, 72 hours
  proliferation, percent over control: 14.8±3.3%
Human bone marrow cells
  proliferative activity on human bone marrow cells in culture (screen): increase cell proliferation
[1]
  increase in proliferation, percent over control (FIG. 2B): 6.9±2.6%
[2]
  increase in proliferation, percent over control (FIG. 2C): 7.6±1.39%
[3]
  plasma concentration: 0.05 µM
[4]
  blood concentration: 100 nmol/L
[5]; after applying a margin of safety
  recommended upper limit for intake by the general public: 50 mcg per day
[5]; human oral doses of 1000 IUs to 4000 IUs (100 mcg/day)
  safety in clinical trials: completely safe
[5]; humans
  safety limit (no adverse effect level, NOAEL) of intake: 60 mcg per day

## NCCC(=O)N[C@@H](Cc1cnc[nH]1)C(=O)O [Carnosine]
Human bone marrow cells; 72 hours
  increase in proliferation, percent over control: 26.6±6.0%
Human bone marrow cells
  proliferative activity on human bone marrow cells in culture (screen): increase cell proliferation
[1]
  increase in proliferation, percent over control (FIG. 2B): 11.05±2.1%
[2]
  increase in proliferation, percent over control (FIG. 2C): 16.9±3.3%
[6]; 100 mg, assuming linear pK
  human blood concentration: 248 µM
[6]; human, whole blood, oral, 250 mg carnosine, Mw of 266, assuming 5 liters of blood, read-out: blood conc
  concentration at 3 h: 620 µM
[7]; 250 mg carnosine (two beef patties) ingested
  plasma conc.: 33 mg/L
[7]; 250 mg carnosine ingested
  time of plasma peak: 3 h
  time of return to baseline: 5 h

## O=C(O[C@@H]1Cc2c(O)cc(O)cc2O[C@@H]1c1cc(O)c(O)c(O)c1)c1cc(O)c(O)c(O)c1 [EGCG]
Human bone marrow cells
  proliferative activity on human bone marrow cells in culture (screen): did not show high activity

## Catechin
Human bone marrow cells; 72 hours
  increase in proliferation, percent over control: 34.8±5.2%
Human bone marrow cells
  proliferative activity on human bone marrow cells in culture (screen): increase cell proliferation
[1]
  increase in proliferation, percent over control (FIG. 2B): 24.8±5.0%

## hGM-CSF: positive control, human granulocyte colony-stimulating factor
Human bone marrow cells; combination experiment, BB 500 ng/mL, D3 5 μM, CH 20 μM, Ca 20 μM, GT 500 ng/mL, 72 hours
  increase in proliferation, percent over control (FIG. 2A): 48.3±7.4%
Human bone marrow cells; highest dose of 100 ng/ml, 72 hours
  proliferation, percent over control: 44.5±8.1%
[1]
  increase in proliferation, percent over control (FIG. 2B): 48.3±7.4%
[2]
  increase in proliferation, percent over control (FIG. 2C): 21.11±2.9%

B1: G-CSF: granulocyte-colony-stimulating factor, potent cytokine given i.p. to mice (protein, UniProt P09919 31-207, looked up)
Granulocyte …: TPLGPASSLPQSFLLKCLEQVRKIQGDGAALQEKLVSECATYKLCHPEELVLLGHSLGIPWAPLSSCPSQALQLAGCLSQLHSGLFLYQGLLQALEGISPELGPTLDTLQLDVADFATTIWQQMEELGMAPALQPTQGAMPAFASAFQRRAGGVLVASHLQSFLEVSYRVLRHLAQP
[8]; BM population
  CD117/SCA-1 positive cells: decrease
[8]; all 3 cell fractions (BM, spleen, MNC)
  CD117/SCA-1 positive cells: small increase
[8]; spleen and MNC populations
  CD117/SCA-1 positive cells: trend for an increase
[9]; bone marrow fraction
  colony forming units (CFU-C's): decrease
[9]; bone marrow fraction, listed as GCSF
  colony forming units (CFU-C's): reduce
[9]; spleen and MNC fractions
  colony forming units (CFU-C's): increase
